ChEMBL document CHEMBL5236594, “Novel α7 nicotinic acetylcholine receptor modulators as potential antitussive agents” (Bioorg Med Chem Lett, 2023)
Activity calls are given as the source filed them. The calls are words filed in the database; no cut-off is given here.

Tests used:
[1] = target: Neuronal acetylcholine receptor; alpha4/beta2 (Homo sapiens, UniProt P17787+P43681); experiment: Binding affinity to alpha4beta2 nAChR (unknown origin) assessed as dissociation constant; type: protein-complex assay
Neuronal acetylcholine receptor; alpha4/beta2, sequence (P17787 whole entry): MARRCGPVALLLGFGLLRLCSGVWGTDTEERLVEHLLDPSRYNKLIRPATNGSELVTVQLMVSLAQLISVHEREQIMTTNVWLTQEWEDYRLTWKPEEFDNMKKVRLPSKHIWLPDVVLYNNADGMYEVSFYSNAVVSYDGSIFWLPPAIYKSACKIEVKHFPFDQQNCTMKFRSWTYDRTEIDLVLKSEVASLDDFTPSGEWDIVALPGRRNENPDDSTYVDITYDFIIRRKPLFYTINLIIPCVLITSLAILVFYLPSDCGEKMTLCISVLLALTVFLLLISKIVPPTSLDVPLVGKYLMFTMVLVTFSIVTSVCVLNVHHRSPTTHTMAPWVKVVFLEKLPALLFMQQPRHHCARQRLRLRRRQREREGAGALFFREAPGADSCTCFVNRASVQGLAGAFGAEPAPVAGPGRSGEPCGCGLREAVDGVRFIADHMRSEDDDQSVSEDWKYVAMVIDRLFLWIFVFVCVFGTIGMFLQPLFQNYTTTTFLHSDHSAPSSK
Neuronal acetylcholine receptor; alpha4/beta2, sequence (P43681 whole entry): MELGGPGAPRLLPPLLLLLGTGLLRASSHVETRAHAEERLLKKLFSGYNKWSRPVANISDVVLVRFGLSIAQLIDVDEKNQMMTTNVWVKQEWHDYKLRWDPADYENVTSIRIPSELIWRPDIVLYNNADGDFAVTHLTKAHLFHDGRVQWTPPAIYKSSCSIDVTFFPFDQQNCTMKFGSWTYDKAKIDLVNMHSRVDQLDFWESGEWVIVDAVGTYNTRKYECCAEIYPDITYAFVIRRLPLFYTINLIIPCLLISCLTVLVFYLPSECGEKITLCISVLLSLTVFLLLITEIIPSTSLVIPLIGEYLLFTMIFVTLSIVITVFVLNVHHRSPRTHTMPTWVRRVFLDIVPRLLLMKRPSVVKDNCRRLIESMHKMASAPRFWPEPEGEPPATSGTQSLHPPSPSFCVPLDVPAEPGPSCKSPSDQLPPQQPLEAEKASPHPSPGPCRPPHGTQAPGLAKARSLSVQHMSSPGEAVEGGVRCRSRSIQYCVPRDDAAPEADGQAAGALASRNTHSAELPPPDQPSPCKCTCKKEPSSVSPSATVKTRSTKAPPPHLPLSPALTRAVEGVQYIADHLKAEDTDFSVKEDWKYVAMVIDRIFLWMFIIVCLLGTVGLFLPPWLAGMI

[2] = target: Neuronal acetylcholine receptor; alpha3/beta4 (Homo sapiens, UniProt P30926+P32297); experiment: Binding affinity to alpha3beta4 nAChR (unknown origin) assessed as dissociation constant; type: protein-complex assay
Neuronal acetylcholine receptor; alpha3/beta4, sequence (P30926 whole entry): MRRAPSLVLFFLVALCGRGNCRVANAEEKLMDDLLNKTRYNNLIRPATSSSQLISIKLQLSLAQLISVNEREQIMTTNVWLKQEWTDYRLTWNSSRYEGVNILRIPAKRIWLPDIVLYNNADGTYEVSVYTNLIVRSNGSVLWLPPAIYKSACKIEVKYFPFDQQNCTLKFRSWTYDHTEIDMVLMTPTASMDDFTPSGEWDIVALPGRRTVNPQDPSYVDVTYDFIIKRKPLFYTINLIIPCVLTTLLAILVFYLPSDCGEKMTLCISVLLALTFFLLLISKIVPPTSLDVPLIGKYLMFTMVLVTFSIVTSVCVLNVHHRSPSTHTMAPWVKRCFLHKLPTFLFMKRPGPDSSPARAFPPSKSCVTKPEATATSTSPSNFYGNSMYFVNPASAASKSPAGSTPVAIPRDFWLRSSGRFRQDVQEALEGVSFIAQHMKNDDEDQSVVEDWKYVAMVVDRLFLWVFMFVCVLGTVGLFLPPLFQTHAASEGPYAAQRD
Neuronal acetylcholine receptor; alpha3/beta4, sequence (P32297 whole entry): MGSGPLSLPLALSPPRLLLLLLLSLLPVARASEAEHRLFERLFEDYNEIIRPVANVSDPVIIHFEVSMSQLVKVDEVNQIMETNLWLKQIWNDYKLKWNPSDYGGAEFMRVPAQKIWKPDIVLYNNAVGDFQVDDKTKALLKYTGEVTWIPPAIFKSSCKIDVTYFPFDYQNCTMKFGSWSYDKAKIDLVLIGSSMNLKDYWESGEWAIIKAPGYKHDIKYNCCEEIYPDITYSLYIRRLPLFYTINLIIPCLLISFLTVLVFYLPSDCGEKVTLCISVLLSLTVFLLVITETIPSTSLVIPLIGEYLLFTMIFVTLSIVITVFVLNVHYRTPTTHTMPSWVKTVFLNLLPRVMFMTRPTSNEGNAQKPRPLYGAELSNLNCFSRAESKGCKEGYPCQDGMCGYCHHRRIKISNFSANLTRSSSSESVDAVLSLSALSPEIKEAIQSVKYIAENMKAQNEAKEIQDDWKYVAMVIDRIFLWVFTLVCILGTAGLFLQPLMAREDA

Cavia porcellus [3] = experiment: Anti-tussive activity in guniea pig cough model assessed as reduction in cumulative number of coughs at 30 mg/kg, ip; type: functional, organism-based
Cavia porcellus [4] = experiment: Anti-tussive activity in guniea pig cough model assessed as suppression of cough frequency at 3 to 30 mg/kg, ip; type: functional, organism-based; details: dose 3-30 mg/kg
Cavia porcellus [5] = experiment: Anti-tussive activity in guniea pig cough model assessed as reduction in cumulative number of coughs at 3 to 30 mg/kg, ip; type: functional, organism-based; details: dose 3-30 mg/kg
[6] = target: Neuronal acetylcholine receptor subunit alpha-7 (Homo sapiens, UniProt P36544); experiment: Binding affinity to alpha7 nAChR (unknown origin) assessed as dissociation constant
Neuronal acetylcholine receptor subunit alpha-7, sequence (P36544 whole entry): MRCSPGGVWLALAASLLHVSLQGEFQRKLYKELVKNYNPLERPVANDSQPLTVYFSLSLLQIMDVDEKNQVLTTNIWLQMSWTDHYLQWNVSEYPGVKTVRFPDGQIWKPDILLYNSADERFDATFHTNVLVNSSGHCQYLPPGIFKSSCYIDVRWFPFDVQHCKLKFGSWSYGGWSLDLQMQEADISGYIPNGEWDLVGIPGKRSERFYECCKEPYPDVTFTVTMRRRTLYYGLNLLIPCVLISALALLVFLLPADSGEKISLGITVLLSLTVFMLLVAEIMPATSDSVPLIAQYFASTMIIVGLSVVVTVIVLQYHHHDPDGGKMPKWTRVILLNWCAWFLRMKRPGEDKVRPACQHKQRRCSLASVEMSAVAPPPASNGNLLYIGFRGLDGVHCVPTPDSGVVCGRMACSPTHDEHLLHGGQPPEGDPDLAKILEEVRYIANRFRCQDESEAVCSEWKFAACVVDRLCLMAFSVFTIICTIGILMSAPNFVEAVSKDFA

[7] = Half life in INSULFFLATION dosed guinea pig; type: ADME, organism-based, Cavia porcellus; details: in vivo, inhaled or intranasal
Cavia porcellus [8] = experiment: Anti-tussive activity in guniea pig cough model assessed as reduction in cumulative number of coughs at 1 to 2 mg/kg, IT; type: functional, organism-based; details: dose 1-2 mg/kg
Cavia porcellus [9] = experiment: Anti-tussive activity in guniea pig cough model assessed as reduction in cough inhibition period at 0.1 to 0.4 mg/kg, INH; type: functional, organism-based; details: dose 0.1-0.4 mg/kg
[10] = Half life in po dosed guinea pig; type: ADME, organism-based, Cavia porcellus; details: in vivo
Cavia porcellus [11] = experiment: Anti-tussive activity in guniea pig cough model assessed as reduction in cumulative number of coughs at 1 to 9.5 mg/kg, ip; type: functional, organism-based; details: dose 1-9.5 mg/kg
Cavia porcellus [12] = experiment: Anti-tussive activity in guniea pig cough model assessed as suppression of cough frequency at 1 to 9.5 mg/kg, ip; type: functional, organism-based; details: dose 1-9.5 mg/kg
Cavia porcellus [13] = experiment: Anti-tussive activity in guniea pig cough model assessed as reduction in cumulative number of coughs at 0.4 mg/kg, INH; type: functional, organism-based
[14] = Half life in ip dosed guinea pig; type: ADME, organism-based, Cavia porcellus; details: in vivo
Cavia porcellus [15] = experiment: Anti-tussive activity in guniea pig cough model assessed as reduction in cough inhibition period at 1 to 9.5 mg/kg, ip; type: functional, organism-based; details: dose 1-9.5 mg/kg
Cavia porcellus [16] = experiment: Anti-tussive activity in guniea pig cough model assessed as reduction in cumulative number of coughs at 9.5 mg/kg, po; type: functional, organism-based
Cavia porcellus [17] = experiment: Anti-tussive activity in citric acid-induced guniea pig cough model assessed as reduction in cough count at 30 mg/kg, ip; type: functional, organism-based

| SMILES | Ki [1] [nM] | Ki [2] [nM] | Ki [6] [nM] | other results |
| --- | --- | --- | --- | --- |
| c1ccc(-c2nnc(O[C@H]3C4CCN(CC4)[C@@H]3Cc3cccnc3)s2)cc1 (relative stereo) | 330 | 340 | – | – |
| COc1ccc2c3c1O[C@H]1[C@@H](O)C=C[C@H]4[C@@H](C2)N(C)CC[C@@]341 | – | – | – | Activity (Cavia porcellus [3]): Active |
| c1cncc(C[C@@H]2[C@@H](Oc3ccc(-c4ccc[nH]4)nn3)C3CCN2CC3)c1 (relative stereo) | 200 | 730 | 42 | Activity (Cavia porcellus [4]): Active; Activity (Cavia porcellus [5]): inactive |
| c1cncc(C[C@@H]2[C@H](Oc3ccc(-c4ccc5[nH]ccc5c4)nn3)C3CCN2CC3)c1 (relative stereo) | 17.3 | 200 | – | – |
| c1cncc(C[C@H]2[C@H](Oc3ccc(-c4ccc5[nH]ccc5c4)cn3)C3CCN2CC3)c1 | 470 | 780 | 58 | – |
| c1ccc(-c2ccc(O[C@@H]3C4CCN(CC4)[C@H]3Cc3cccnc3)nn2)cc1 (relative stereo) | 120 | 80 | 100 | – |
| Nc1nc2ccc(-c3ccc(O[C@H]4C5CCN(CC5)[C@@H]4Cc4cccnc4)nn3)cc2s1 (relative stereo) | 50 | 1080 | 18.8 | – |
| c1cncc(C[C@H]2[C@H](Oc3cnc(-c4ccc5[nH]ccc5c4)cn3)C3CCN2CC3)c1 (relative stereo) | 230 | 400 | 240 | – |
| c1cncc(C[C@@H]2[C@@H](Oc3cc4ccccc4cn3)C3CCN2CC3)c1 (relative stereo) | 1870 | 2150 | 1000 | – |
| c1cncc(C[C@@H]2[C@@H](Oc3nnc(-c4ccc5[nH]ccc5c4)s3)C3CCN2CC3)c1 (relative stereo) | 220 | 440 | – | half-life [7]: 192 min; Activity (Cavia porcellus [8]): Active; Activity (Cavia porcellus [9]): Active; half-life [10]: 90 min; Activity (Cavia porcellus [11]): Active; Activity (Cavia porcellus [12]): Active; Activity (Cavia porcellus [13]): Active; half-life [14]: 102 min; Activity (Cavia porcellus [15]): Active; Activity (Cavia porcellus [16]): inactive |
| c1cncc(C[C@H]2[C@H](Oc3ccc(-c4ccc5[nH]ccc5c4)nn3)C3CCN2CC3)c1 (relative stereo) | 73 | 730 | 1.4 | Activity (Cavia porcellus [17]): Active |
| c1cncc(C[C@@H]2[C@@H](Oc3ccc4ccccc4n3)C3CCN2CC3)c1 (relative stereo) | 140 | 800 | – | – |
